# Results: patent US6855713B2, “Benzimidazole derivatives, a process for their manufacture and use as a medicine” (Boehringer Ingelheim Pharma KG, priority 2001, dated 2005)
# Structures can show the parent of a compound that is named as a salt.
# Target: T1, rh beta trypsin (Homo sapiens, UniProt P20231)
# T1 construct: purchased Promega
# Assay: Trypsin (tryptase) inhibition, cleavage of N-p-Gly-Pro-Lys-para-nitroaniline measured at 405 nm
# Assay type: biochemical
# Settings: in vitro tests on the pro-drugs of formula IIA; read-out: IC50
# Experimental: The compounds of the invention are notable for their effective trypsin-inhibiting property. The said capacity to inhibit trypsin activity was determined in accordance with the following trial descriptions.
# The determinations are carried out in tris-HCl buffer (100 mM), that also contained calcium (5 mM) and heparin ([…]), at a pH of 7.4. As the standard, rh beta trypsin is used, this is commercially obtainable, for example, from Promega. A suitable substrate is N-p-Gly-Pro-Lys-para-nitroaniline in a concentration of 0.6 mM. The substrate is digested with trypsin, whereby p-nitro-aniline is obtained that can be measured at 405 nm. Normally, an incubation period of 5 minutes and an incubation temperature of 37° C. is chosen. For the enzyme activity, 0.91 U/ml are used. The determination is carriedout in an auto-analyser (Cobas Bio) from the firm Hoffmann LaRoche. The potential inhibitor substances are used in the screening procedure in concentrations of 10 μM, and the inhibition of the trypsin is given in percentages. At an inhibition in excess of 70%, the IC50 is determined (the concentration at which 50% of the enzyme activity is inhibited). After a 5-minute pre-incubation of the potential inhibiting substance, the substrate is added for the start of the reaction, whereby the production of p-nitro-aniline is taken, after 5 minutes, after testing the linearity, as a measure of the enzyme activity.
# T1 sequence (P20231 31-275): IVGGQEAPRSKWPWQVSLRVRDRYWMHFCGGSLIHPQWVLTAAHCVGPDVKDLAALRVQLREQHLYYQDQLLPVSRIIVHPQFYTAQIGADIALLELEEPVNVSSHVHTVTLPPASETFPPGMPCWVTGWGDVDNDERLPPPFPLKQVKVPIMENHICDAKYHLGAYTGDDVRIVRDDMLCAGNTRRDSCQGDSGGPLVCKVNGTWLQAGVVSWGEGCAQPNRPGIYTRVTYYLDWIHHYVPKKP
row,SMILES,IC50
1,CCOC(=O)N=C(N)c1ccc(CCc2nc3cc(C(=O)N4CCC(NC(=O)c5ccccc5)CC4)ccc3n2C)cc1 [IIA6],2490 nM

# Same assay, conditions: in vitro; tris-HCl buffer pH 7.4 with calcium and heparin; substrate 0.6 mM; 5 minutes, 37° C.; read-out: Trypsin-inhibiting property
row,SMILES,IC50
1,"CSc1cccc(NC(=O)NC2CCN(C(=O)c3ccc4c(c3)nc(CCc3ccc(C(=N)N)cc3)n4C)CC2)c1 [Example 58, 2-[2-(4-Amidinophenyl)-ethyl]-1-methyl-benzimidazole-5-yl-carboxylic acid-{4-[3-(3-methylsulfanyl)phenylureido]piperidinyl}-amide]",0.1 to 1 nM
2,CN(C1CCN(C(=O)c2ccc3c(c2)nc(CCc2ccc(C(=N)N)cc2)n3C)CC1)S(=O)(=O)c1cccc2ccccc12 [Example 169],1 to 20 nM
3,"Cn1c(CCc2ccc(C(=N)N)cc2)nc2cc(C(=O)N3CCC(NC(=O)c4cccc(Cl)c4)CC3)ccc21 [Example 44, 2-[2-(4-Amidinophenyl)-ethyl]-1-methyl-benzimidazole-5-yl-carboxylic acid-[4-(3-chloro)-benzamidopiperidinyl)-amide]",0.1 to 1 nM
4,"Cn1c(CCc2ccc(C(=N)N)cc2)nc2cc(C(=O)N3CCC(NC(=O)Nc4cccc(Br)c4)CC3)ccc21 [Example 43, 4-[2-(5-{4-[3-(3-Bromo-phenyl)-ureido]-piperidine-1-carbonyl}-1-methyl-1H-benzimidazole-2-yl)-ethyl]-benzamidine]",0.1 to 1 nM
5,"Cn1c(CCc2ccc(C(=N)N)cc2)nc2cc(C(=O)N3CCC(NC(=O)c4cccc(Cl)c4Cl)CC3)ccc21 [Example 49, 2-[2-(4-Amidinophenyl)-ethyl]-1-methyl-benzimidazole-5-yl-carboxylic acid-[4-(2,3-dichloro)-benzamidopiperidinyl)-amide]",1 to 20 nM
6,"Cn1c(CCc2ccc(C(=N)N)cc2)nc2cc(C(=O)N3CCC(NC(=O)Nc4ccccc4F)CC3)ccc21 [Example 27, 4-[2-(5-{4-[3-(2-Fluoro-phenyl)-ureido]-piperidine-1-carbonyl}-1-methyl-1H-benzimidazole-2-yl)-ethyl]-benzamidine]",0.1 to 1 nM
7,Cc1c(Cl)cccc1S(=O)(=O)N(C)C1CCN(C(=O)c2ccc3c(c2)nc(CCc2ccc(C(=N)N)cc2)n3C)CC1 [Example 170],1 to 20 nM
8,"Cn1c(CCc2ccc(C(=N)N)cc2)nc2cc(C(=O)N3CCC(NC(=O)Nc4cccc(F)c4)CC3)ccc21 [Example 26, 4-[2-(5-{4-[3-(3-Fluoro-phenyl)-ureido]-piperidine-1-carbonyl}-1-methyl-1H-benzimidazole-2-yl)-ethyl]-benzamidine]",1 to 20 nM
9,"Cn1c(CCc2ccc(CN)cc2)nc2cc(C(=O)N3CCC(NC(=O)c4ccccc4)CC3)ccc21 [Example 15, 2-[2-(4-Aminomethylphenyl)-ethyl]-1-methyl-benzimidazole-5-yl-carboxylic acid-(4-benzamido-piperidinyl)-amide]",1 to 20 nM
10,CCCCS(=O)(=O)NC1CCN(C(=O)c2ccc3c(c2)nc(CCc2ccc(C(=N)N)cc2)n3C)CC1 [Example 173],20 to 50 nM
11,"COc1ccccc1NC(=O)NC1CCN(C(=O)c2ccc3c(c2)nc(CCc2ccc(C(=N)N)cc2)n3C)CC1 [Example 30, 4-[2-(5-{4-[3-(2-Methoxy-phenyl)-ureido]-piperidine-1-carbonyl}-1-methyl-1H-benzimidazole-2-yl)-ethyl]-benzamidine]",1 to 20 nM
12,"CC(=O)c1cccc(NC(=O)NC2CCN(C(=O)c3ccc4c(c3)nc(CCc3ccc(C(=N)N)cc3)n4C)CC2)c1 [Example 56, 2-[2-(4-Amidinophenyl)-ethyl]-1-methyl-benzimidazole-5-yl-carboxylic acid-{4-[3-(3-acetyl)-phenylureido]piperidinyl}-amide]",1 to 20 nM
13,"Cn1c(CCc2ccc(C(=N)N)cc2)nc2cc(C(=O)N3CCN(C/C=C/c4ccccc4)CC3)ccc21 [Example 1, [2-(4-amidinophenyl)-ethyl]-1-methyl-benzimidazole-5-yl-carboxylic acid-[4-(3-phenyl-allyl)-piperazinyl]-amide-dihydrochloride]",1 to 20 nM
14,"Cn1c(CCc2ccc(C(=N)N)cc2)nc2cc(C(=O)N3CCC(NC(=O)Nc4c(F)cccc4F)CC3)ccc21 [Example 38, 4-[2-(5-{4-[3-(2,6-Difluoro-phenyl)-ureido]-piperidine-1-carbonyl}-1-methyl-1H-benzimidazole-2-yl)-ethyl] -benzamidine]",1 to 20 nM
15,N=C(N)c1ccc(CCc2nc3cc(C(=O)N4CCC(NC(=O)c5ccccc5)CC4)ccc3n2C2CC2)cc1 [Example 196],20 to 50 nM
16,"Cn1c(CCc2ccc(C(=N)N)cc2)nc2cc(C(=O)N3CCC(NC(=O)Nc4ccc(F)cc4F)CC3)ccc21 [Example 33, 4-[2-(5-{4-[3-(2,4-Difluoro-phenyl)-ureido]-piperidine-1-carbonyl}-1-methyl-1H-benzimidazole-2-yl)-ethyl]-benzamidine]",1 to 20 nM
